# Source: ChEMBL document CHEMBL3627608, “Crystal structures of human RIP2 kinase catalytic domain complexed with ATP-competitive inhibitors: Foundations for understanding inhibitor selectivity” (Bioorg Med Chem, 2015)
# What was measured:
# [1] = target: T1, Serine/threonine-protein kinase haspin (Homo sapiens) (UniProt Q8TF76); assay: Inhibition of Haspin (unknown origin) at 10 uM after 120 mins P33 radiolabeled kinase activity assay
# T1 sequence (whole entry): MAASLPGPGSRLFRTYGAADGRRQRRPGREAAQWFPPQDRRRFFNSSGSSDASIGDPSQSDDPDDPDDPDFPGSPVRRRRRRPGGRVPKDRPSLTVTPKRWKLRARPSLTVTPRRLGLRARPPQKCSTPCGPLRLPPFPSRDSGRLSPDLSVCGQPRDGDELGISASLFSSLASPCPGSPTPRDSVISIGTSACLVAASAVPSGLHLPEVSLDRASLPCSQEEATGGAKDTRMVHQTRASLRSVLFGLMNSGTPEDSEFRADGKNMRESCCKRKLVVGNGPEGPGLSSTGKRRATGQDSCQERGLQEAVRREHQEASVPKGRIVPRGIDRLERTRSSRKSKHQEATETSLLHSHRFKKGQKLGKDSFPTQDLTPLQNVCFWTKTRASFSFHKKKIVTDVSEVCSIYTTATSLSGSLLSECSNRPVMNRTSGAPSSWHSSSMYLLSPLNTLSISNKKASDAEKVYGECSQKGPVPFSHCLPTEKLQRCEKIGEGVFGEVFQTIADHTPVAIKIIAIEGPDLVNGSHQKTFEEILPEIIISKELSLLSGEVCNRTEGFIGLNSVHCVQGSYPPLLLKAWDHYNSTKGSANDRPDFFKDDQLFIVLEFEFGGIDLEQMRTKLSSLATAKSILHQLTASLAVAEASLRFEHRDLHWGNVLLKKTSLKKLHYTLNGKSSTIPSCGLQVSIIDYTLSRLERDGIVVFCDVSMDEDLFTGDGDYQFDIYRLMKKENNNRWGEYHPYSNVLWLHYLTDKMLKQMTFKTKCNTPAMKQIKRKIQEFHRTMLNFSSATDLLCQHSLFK
# [2] = target: T2, Serine/threonine-protein kinase Nek5 (Homo sapiens) (UniProt Q6P3R8); assay: Inhibition of NEK5 (unknown origin) at 10 uM after 120 mins P33 radiolabeled kinase activity assay
# T2 sequence (whole entry): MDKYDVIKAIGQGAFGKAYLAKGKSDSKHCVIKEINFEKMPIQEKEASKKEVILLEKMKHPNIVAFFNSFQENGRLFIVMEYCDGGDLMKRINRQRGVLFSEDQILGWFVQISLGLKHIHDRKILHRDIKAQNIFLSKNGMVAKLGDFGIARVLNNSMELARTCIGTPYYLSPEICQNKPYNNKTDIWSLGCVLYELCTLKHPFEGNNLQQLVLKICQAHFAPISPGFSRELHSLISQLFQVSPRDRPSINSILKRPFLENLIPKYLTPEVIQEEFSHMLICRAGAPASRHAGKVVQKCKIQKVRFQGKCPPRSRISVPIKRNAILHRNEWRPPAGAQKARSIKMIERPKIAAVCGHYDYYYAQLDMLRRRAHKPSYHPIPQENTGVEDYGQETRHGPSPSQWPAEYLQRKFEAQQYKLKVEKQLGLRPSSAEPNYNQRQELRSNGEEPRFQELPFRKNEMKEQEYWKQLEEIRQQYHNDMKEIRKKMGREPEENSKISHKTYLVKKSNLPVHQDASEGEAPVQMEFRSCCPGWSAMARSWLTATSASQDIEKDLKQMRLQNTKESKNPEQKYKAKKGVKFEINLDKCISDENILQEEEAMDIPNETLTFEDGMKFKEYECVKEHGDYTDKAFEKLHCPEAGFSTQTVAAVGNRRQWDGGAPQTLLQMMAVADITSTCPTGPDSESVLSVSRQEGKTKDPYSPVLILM
# [3] = target: Tyrosine-protein kinase SYK (Homo sapiens) (UniProt P43405); assay: Inhibition of SYK (unknown origin) at 10 uM after 120 mins P33 radiolabeled kinase activity assay
# [4] = target: T3, MAP kinase-activated protein kinase 5 (Homo sapiens) (UniProt Q8IW41); assay: Inhibition of MAPKAPK5 (unknown origin) at 10 uM after 120 mins P33 radiolabeled kinase activity assay
# T3 sequence (whole entry): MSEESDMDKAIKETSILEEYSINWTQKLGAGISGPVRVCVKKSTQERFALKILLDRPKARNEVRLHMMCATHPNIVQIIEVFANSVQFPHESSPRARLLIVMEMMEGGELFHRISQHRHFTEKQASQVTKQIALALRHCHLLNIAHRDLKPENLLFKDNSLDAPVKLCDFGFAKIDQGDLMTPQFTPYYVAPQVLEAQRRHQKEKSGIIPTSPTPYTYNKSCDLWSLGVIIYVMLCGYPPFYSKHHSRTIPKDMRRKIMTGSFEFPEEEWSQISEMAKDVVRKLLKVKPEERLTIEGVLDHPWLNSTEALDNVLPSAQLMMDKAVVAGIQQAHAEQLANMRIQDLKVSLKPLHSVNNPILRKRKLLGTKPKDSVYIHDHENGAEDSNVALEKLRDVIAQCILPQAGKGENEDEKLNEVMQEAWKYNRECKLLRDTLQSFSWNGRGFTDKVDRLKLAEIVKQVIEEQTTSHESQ
# [5] = target: CDK2/Cyclin A1 (Homo sapiens) (UniProt P24941+P78396); assay: Inhibition of CDK2/Cyclin A1 (unknown origin) at 10 uM after 120 mins P33 radiolabeled kinase activity assay; assay type: protein-complex assay
# [6] = target: T4, Activin receptor type-1 (Homo sapiens) (UniProt Q04771); assay: Inhibition of ALK2 (unknown origin) at 10 uM after 120 mins P33 radiolabeled kinase activity assay
# T4 sequence (whole entry): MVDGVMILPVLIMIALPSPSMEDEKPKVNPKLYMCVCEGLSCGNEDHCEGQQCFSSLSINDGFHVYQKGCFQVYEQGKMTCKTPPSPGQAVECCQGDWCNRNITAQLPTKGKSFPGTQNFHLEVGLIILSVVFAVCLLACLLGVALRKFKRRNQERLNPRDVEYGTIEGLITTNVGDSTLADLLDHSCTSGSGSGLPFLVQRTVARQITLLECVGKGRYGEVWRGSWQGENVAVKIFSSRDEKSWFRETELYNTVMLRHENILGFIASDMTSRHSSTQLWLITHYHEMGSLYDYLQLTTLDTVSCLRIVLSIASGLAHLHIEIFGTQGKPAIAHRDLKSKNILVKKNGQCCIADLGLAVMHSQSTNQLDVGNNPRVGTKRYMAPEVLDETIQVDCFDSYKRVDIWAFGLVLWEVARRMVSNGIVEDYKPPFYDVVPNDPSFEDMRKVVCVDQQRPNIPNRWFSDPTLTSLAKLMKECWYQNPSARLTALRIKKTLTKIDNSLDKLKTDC
# [7] = target: Myosin light chain kinase, smooth muscle (Homo sapiens) (UniProt Q15746); assay: Inhibition of MLCK (unknown origin) at 10 uM after 120 mins P33 radiolabeled kinase activity assay
# Sequence of Myosin light chain kinase, smooth muscle (Homo sapiens) (Q15746 whole entry): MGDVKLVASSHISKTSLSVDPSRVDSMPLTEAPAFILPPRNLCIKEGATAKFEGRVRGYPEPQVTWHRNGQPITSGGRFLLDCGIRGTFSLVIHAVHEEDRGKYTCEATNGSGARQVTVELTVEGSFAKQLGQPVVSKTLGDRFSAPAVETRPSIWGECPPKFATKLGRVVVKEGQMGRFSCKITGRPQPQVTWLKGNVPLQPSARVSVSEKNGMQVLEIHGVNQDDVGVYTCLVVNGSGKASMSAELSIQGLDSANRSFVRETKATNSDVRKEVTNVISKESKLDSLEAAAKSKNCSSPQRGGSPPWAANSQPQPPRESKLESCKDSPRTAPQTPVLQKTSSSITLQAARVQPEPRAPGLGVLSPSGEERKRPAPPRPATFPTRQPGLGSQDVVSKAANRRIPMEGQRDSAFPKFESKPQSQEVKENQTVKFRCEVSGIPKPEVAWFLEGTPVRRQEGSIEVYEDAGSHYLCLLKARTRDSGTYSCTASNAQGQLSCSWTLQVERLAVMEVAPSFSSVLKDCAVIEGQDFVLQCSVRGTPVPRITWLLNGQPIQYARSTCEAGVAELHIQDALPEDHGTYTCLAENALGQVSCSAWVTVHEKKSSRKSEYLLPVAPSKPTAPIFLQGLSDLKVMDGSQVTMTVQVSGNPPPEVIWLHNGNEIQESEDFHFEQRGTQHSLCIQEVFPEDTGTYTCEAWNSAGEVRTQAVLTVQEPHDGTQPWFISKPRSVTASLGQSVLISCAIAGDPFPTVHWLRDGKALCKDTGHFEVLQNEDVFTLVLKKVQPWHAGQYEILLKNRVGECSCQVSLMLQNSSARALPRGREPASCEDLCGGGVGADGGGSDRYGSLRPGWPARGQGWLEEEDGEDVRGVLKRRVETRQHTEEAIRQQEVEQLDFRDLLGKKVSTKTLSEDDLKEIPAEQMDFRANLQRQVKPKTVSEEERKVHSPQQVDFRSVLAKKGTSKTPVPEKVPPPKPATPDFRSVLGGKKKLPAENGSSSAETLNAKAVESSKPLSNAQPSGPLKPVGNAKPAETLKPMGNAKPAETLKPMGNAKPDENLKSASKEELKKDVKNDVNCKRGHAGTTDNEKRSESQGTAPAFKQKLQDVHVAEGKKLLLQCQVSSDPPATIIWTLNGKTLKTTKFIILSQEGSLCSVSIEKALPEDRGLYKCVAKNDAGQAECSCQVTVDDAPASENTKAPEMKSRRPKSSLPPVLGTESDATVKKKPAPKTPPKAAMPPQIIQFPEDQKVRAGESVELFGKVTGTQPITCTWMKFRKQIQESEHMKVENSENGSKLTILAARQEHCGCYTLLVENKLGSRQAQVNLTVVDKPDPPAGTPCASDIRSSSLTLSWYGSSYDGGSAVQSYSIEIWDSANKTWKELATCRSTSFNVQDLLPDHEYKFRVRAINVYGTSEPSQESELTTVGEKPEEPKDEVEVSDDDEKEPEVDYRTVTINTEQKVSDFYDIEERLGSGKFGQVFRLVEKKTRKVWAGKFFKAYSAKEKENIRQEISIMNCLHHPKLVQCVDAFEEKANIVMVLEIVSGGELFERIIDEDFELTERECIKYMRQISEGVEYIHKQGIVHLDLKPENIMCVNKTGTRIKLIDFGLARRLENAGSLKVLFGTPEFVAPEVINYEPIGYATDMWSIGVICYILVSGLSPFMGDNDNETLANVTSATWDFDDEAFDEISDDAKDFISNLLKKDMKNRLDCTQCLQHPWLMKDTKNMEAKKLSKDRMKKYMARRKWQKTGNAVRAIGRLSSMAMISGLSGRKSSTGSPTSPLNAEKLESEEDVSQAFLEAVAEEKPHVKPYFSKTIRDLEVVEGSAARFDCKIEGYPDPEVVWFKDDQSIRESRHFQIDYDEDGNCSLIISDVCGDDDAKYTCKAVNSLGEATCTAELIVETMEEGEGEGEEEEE
SMILES,inhibition [1] [%],inhibition [2] [%],inhibition [3] [%],inhibition [4] [%],inhibition [5] [%],inhibition [6] [%],inhibition [7] [%]
COCCNC(=O)c1ccc2c(c1)nc(-c1cnc(-c3ccc(Cl)cc3)[nH]1)n2CCOC,11.4,9.53,5.53,5.26,18.1,10.4,17.6
CS(=O)(=O)c1cccc(Nc2nccc(-c3sc(N4CCOCC4)nc3-c3cccc(NS(=O)(=O)c4c(F)cccc4F)c3)n2)c1,12.1,50.5,21.4,4.25,43.5,85.2,15.6
CC(C)(C)c1cc(NC(=O)Nc2ccc(Oc3ccncc3)cc2)no1,12.3,27.3,6.66,-1.68,51.4,-3.19,19.4
